Data published in patent US20250186410A1, “DUAL INHIBITORS OF TRYPTOPHAN DIOXYGENASES (IDO1 AND TDO) AND THEIR USE IN THERAPY” (ANTIDO THERAPEUTICS INTERNATIONAL SÀRL, priority 2022, published 2025).

Tests used:
[1] = molecular target: human TDO (GL261 cells transfected to over-express full length human TDO) (Homo sapiens (Human), UniProt P48775); experiment: Cell-based assay for TDO inhibition; conditions: 24 h; read-out: Cellular TDO IC50
Description: Culture supernatant from each well was then transferred into a fresh, flat-bottomed 96-well plate, and kynurenine content was determined as described above for the IDO1 assay, and the concentration that inhibited 50% cellular enzyme activity was calculated.

[2] = MTT cell viability in the cellular IDO1/TDO experiments; assay type: cell-based; conditions: mouse, read-out: Cytotoxicity IC50
Description: The viability of the cells in each well in the same experiment was determined using the 3-(4,5-dimethylthiazolyl-2-yl)-2,5-diphenyltetrazolium bromide (MTT) colourimetric assay. After the removal of the supernatant for determination of IDO1 inhibition, the cells were incubated with MTT (500 μg/mL) until crystal formation was observed. Plates were centrifuged for 15 min at 2500 g, and then all the supernatant in then wells was discarded. DMSO (100 μL/well) was added to dissolve the crystals and then the absorbance in each well was measured at 570 nm. Cell viability in each well was expressed as a percentage of untreated controls. Triplicate cultures were used for all experiments unless stated otherwise.
The viability of the cells in each well in the same experiment was determined using the 3-(4,5-dimethylthiazolyl-2-yl)-2,5-diphenyltetrazolium bromide (MTT) colourimetric assay.

[3] = molecular target: human IDO1 (LLTC-hIDO1 cells) (Homo sapiens (Human), UniProt P14902); experiment: Cell-based assay for IDO1 inhibition; conditions: 24 h; read-out: Cellular IDO1 IC50
Sequence of human IDO1 (LLTC-hIDO1 cells) (P14902 whole entry): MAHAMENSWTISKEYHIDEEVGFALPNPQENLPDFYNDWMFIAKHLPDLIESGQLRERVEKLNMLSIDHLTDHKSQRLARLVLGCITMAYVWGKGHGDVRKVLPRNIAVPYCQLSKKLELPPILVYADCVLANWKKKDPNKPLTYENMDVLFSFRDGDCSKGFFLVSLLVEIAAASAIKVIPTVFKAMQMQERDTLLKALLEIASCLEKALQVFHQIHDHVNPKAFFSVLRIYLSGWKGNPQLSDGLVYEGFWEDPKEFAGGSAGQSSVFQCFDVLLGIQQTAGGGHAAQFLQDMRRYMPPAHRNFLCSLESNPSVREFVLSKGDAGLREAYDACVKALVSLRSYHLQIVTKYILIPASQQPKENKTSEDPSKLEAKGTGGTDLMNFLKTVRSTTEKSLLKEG
Description: Culture supernatant from each well was then transferred into a fresh, flat-bottomed 96-well plate, mixed with trichloroacetic acid (10% final concentration) and incubated for 20 min at 60° C. Plates were then centrifuged (10 min at 2500 g) and the supernatants were then transferred and mixed 1:1 with 4-(dimethylamino)benzaldehyde (20 mg/mL in acetic acid) in a new plate. The absorbance of each well was read at 480 nm, and the concentration that inhibited 50% cellular enzyme activity was calculated.

[4] = molecular target: Recombinant human IDO1 (rhIDO1) (Homo sapiens (Human), UniProt P14902); experiment: Enzymatic assay for IDO1 activity; assay type: biochemical; conditions: read-out: Isolated IDO1 Enayme Assay IC50
Sequence of Recombinant human IDO1 (rhIDO1) (P14902 whole entry): as above
Description: Recombinant human IDO1 (rhIDO1) was expressed and purified from cultures of EC538 strain of E. coli transformed with pREP4 and pQE9-IDO plasmid. Reaction mixes were set up in 384-well microplates containing 50 mM phosphate buffer, 10 mM ascorbic, 10 μM methylene blue, 100 μg/mL catalase, 80 μM TRP, 0.01% Tween 20 (v/v) mixed with rhIDO1 (15 μL) at a final concentration of 9 nM in a total volume of 30 μL assay medium. The plates were incubated at 37° C. for 30 min, and the enzymatic reaction was terminated by adding piperidine (200 mM) and heated at 65° C. for 20 min. Fluorescence intensity was read at λex 400 nm and λem 500 nm. Test compounds were dissolved in 100% DMSO and pre-diluted in assay medium prior to adding rhIDO1. IDO1 inhibition (%) was calculated as
All experiments were carried out in triplicates, and statistical Analyses were conducted in Prism v5 (Graphpad Software, Inc., La Jolla, CA, USA).

LLC-CR cells = conditions: cited from earlier work

Sequence of human TDO (GL261 cells transfected to over-express full length human TDO) (P48775 whole entry): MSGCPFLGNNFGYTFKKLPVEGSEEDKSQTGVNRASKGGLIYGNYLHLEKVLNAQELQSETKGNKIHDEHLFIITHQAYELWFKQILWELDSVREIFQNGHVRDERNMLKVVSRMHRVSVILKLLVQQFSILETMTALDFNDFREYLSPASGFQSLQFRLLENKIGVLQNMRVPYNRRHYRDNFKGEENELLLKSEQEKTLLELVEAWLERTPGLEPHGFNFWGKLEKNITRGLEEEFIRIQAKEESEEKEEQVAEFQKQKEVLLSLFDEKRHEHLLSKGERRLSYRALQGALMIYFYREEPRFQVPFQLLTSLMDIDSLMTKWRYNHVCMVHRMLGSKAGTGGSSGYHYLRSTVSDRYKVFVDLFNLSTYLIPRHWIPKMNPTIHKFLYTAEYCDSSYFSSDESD

Row | Compound | IC50 [1] [µM] | IC50 at 24 h [2] [µM] | IC50 [3] [µM] | IC50 [4] [µM] | GI50 concentration in resistant clones (LLC-CR cells; LLC-CR cells) [µg/mL] | fold resistance of LLC-CR (LLC-CR cells; LLC-CR versus parental LLC)
1 | Cc1nc2onc(N)c2c(C)c1Br [Compound 1, 5-Bromo-4,6-dimethylisoxazolo[5,4-b]pyridin-3-amine] | 10 to 100 | > 100 |  |  |  | 
2 | Cc1nc2onc(N)c2c(C)c1Cl [Compound 3, 5-Chloro-4,6-dimethylisoxazolo[5,4-b]pyridin-3-amine] | 10 to 100 | 10 to 100 |  |  |  | 
3 | Cc1cc(C)c2c(N)noc2n1 [Compound 4, 4,6-Dimethylisoxazolo[5,4-b]pyridin-3-amine] | 10 to 100 | > 100 |  |  |  | 
4 | Cc1nc2onc(N)c2c(C)c1C [Compound 5, 4,5,6-Trimethylisoxazolo[5,4-b]pyridin-3-amine] | 10 to 100 | > 100 | 1 to 10 |  |  | 
5 | Nc1noc2ncc(Br)cc12 [Compound 6, 5-Bromoisoxazolo[5,4-b]pyridin-3-amine] | < 1 | > 100 |  |  |  | 
6 | Nc1noc2ncc(Cl)cc12 [Compound 8, 5-Chloroisoxazolo[5,4-b]pyridin-3-amine] | < 1 | > 100 |  |  |  | 
7 | Nc1noc2nc3ccccc3cc12 [Compound 9, Isoxazolo[5,4-b]quinolin-3-amine] | 1 to 10 | 10 to 100 |  |  |  | 
8 | Nc1noc2nc3c(cc12)CCCC3 [Compound 10, 5,6,7,8-Tetrahydroisoxazolo[5,4-b]quinolin-3-amine] | 10 to 100 | > 100 |  | > 100 |  | 
9 | Nc1noc2nc(Cl)ccc12 [Compound 11, 6-Chloroisoxazolo[5,4-b]pyridin-3-amine] |  | > 100 |  |  |  | 
10 | Nc1noc2ncncc12 [Compound 12, Isoxazolo[5,4-d]pyrimidin-3-amine] | 1 to 10 | > 100 |  | > 100 |  | 
11 | Nc1noc2ncc(F)cc12 [Compound 14, 5-Fluoroisoxazolo[5,4-b]pyridin-3-amine] | 1 to 10 | > 100 | 1 to 10 | > 100 |  | 
12 | Nc1noc2nc(-c3ccccc3)ccc12 [Compound 15, 6-Phenylisoxazolo[5,4-b]pyridin-3-amine] | 10 to 100 | > 100 |  | > 100 |  | 
13 | Cc1nc2onc(NC(=O)Nc3cccc(C(F)(F)F)c3)c2c(C)c1Cl [Compound 15B, 1-(5-Chloro-4,6-dimethylisoxazolo[5,4-b]pyridin-3-yl)-3-(3-(trifluoromethyl)phenyl)urea] |  | > 100 | 1 to 10 | > 100 |  | 
14 | Nc1noc2ncc(I)cc12 [Compound 16, 5-Iodoisoxazolo[5,4-b]pyridin-3-amine] | < 1 | > 100 |  |  |  | 
15 | Nc1noc2ncc(-c3ccccc3)cc12 [Compound 24, 5-Phenylisoxazolo[5,4-b]pyridin-3-amine] | 1 to 10 | > 100 | 10 to 100 | > 100 |  | 
16 | COc1ccc2c(N)noc2n1 [Compound 41, 6-Methoxyisoxazolo[5,4-b]pyridin-3-amine] | 10 to 100 | > 100 | 1 to 10 | > 100 |  | 
17 | Cc1cc(Cl)nc2onc(N)c12 [Compound 42, 6-Chloro-4-methylisoxazolo[5,4-b]pyridin-3-amine] | 1 to 10 | > 100 |  | < 1 |  | 
18 | Cc1cnc2onc(N)c2c1 [Compound 44, 5-Methylisoxazolo[5,4-b]pyridin-3-amine] | < 1 | > 100 |  | > 100 |  | 
19 | Cc1cc2c(N)noc2nc1C [Compound 45, 5,6-Dimethylisoxazolo[5,4-b]pyridin-3-amine] | 1 to 10 | > 100 |  | > 100 |  | 
20 | Nc1noc2nc(C(F)(F)F)ccc12 [Compound 47, 6-(Trifluoromethyl)isoxazolo[5,4-b]pyridin-3-amine] | 1 to 10 | > 100 |  | < 1 |  | 
21 | Nc1noc2ncc([N+](=O)[O-])cc12 [Compound 49, 5-Nitroisoxazolo[5,4-b]pyridin-3-amine] | < 1 | > 100 |  |  |  | 
22 | Nc1noc2nc(Cl)c(Cl)cc12 [Compound 67, 5,6-Dichloroisoxazolo[5,4-b]pyridin-3-amine] | < 1 | > 100 |  |  |  | 
23 | Nc1noc2nc(-c3cccs3)ccc12 [Compound 74, 6-(2-Thienyl)isoxazolo[5,4-b]pyridin-3-amine] | 10 to 100 | > 100 |  | > 100 |  | 
24 | Nc1noc2nc(Oc3ccccc3Cl)ccc12 [Compound 84, 6-(2-Chlorophenoxy)isoxazolo[5,4-b]pyridin-3-amine] | 1 to 10 | > 100 |  |  |  | 
25 | Nc1noc2nc(Oc3ccc(OC(F)(F)F)cc3)ccc12 [Compound 89, 6-(4-(Trifluoromethoxy)phenoxy)isoxazolo[5,4-b]pyridin-3-amine] |  | > 100 |  |  |  | 
26 | COc1cccc(Nc2ccc3c(N)noc3n2)c1 [Compound 95, N^6-(3-Methoxyphenyl)isoxazolo[5,4-b]pyridine-3,6-diamine] | 10 to 100 | > 100 | 10 to 100 | > 100 |  | 
27 | N.N.O=C([O-])C1(C(=O)[O-])CCC1.[Pt+2] [carboplatin] |  |  |  |  | 1.3 | 3-5 fold
